{"source": "patent US9011880B2", "about": "“Compounds and methods for treating cancer” (IGF Oncology, LLC, priority 2003, dated 2015)", "key": {"[1]": {"system": "MDA-MB-231 breast cancer cells", "settings": "cells incubated with insulin; cited from earlier work"}, "[2]": {"system": "mouse fibrosarcoma cell line FSAII", "assay": "In vitro growth inhibition of FSAII cells (cell-counting kit-8)", "assay_type": "cell-based", "settings": "minimal medium, 2 nM to 2 μM, 72 hours", "method": "In vitro growth inhibition. […] The cells were grown in a 5% CO2 atmosphere at 37° C. in 100 cm^2 plastic tissue culture dishes (20 ml medium). Cells were passed every 4-6 days and seeded at 2×10^6 cells per plate. Cells were harvested by washing once in Hank's balanced salt solution, and then digesting with 3 ml of trypsin-EDTA for 3-10 minutes until cells had detached. Trypsinization was stopped by adding rich medium. The harvested cells were washed by centrifugation and resuspended in rich medium, and then plated in a 96-well plate at 12,000 cells per well in rich medium. Plates were incubated in the rich medium 16 hours and then transferred to minimal medium (100 μl/well), which lacked serum and thus lacked insulin and IGF and other growth factors. Minimal medium was RPMI supplemented with 10 μg/ml transferrin (iron-loaded) and 200 μg/ml bovine serum albumin. […] Each condition was tested in triplicate. After 72 hours incubation at 37° C., cell proliferation was assayed by the cell-counting kit-8, based on tetrazolium dye reduction, similar to the MTT assay (Dojindo Molecular Technologies, Gaithersburg, Md.)."}, "[3]": {"system": "FSAII tumors", "assay": "FSAII tumor growth in vivo in mice", "design": "species or system mouse", "settings": "intraperitoneally, days 0, 2 and 5", "method": "FSAII testing. Six-week old female mice were injected subcutaneously in the thigh with 200,000 FSAII cells each in serum-free medium. Tumors were allowed to grow until they reached an average volume of 100 mm^3 (calculated as length×breadth^2). At that time, treatment was initiated. […] A fifth group of mice was untreated controls. Each group contained five mice. Mice were treated on days 0, 2, and 5. Tumor growth was measured every second day."}, "[4]": {"system": "LNCAP tumors", "assay_type": "in vivo, mouse", "settings": "days 0, 4, 8, 18, 22 and 26", "method": "LNCAP testing. Eight-week old athymic male mice (nu/nu) were injected subcutaneously in the thigh with 1 million LNCAP cells in serum-free medium. Tumors were allowed to grow until they reached an average size of 100 mm^3. […] A fifth group of mice was untreated controls."}, "[5]": {"system": "LNCAP cells", "assay": "In vitro proliferation assay, LNCaP (Example 8)", "assay_type": "cell-based, human", "method": "LNCaP, MCF7 and MCF7-L cell lines were plated, respectively, in a 96-well plate at 5,000 cells per well in RPMI+glutamine+10% FCS medium in 100 μl. After 24 hours, 100 μl fresh medium was added containing no drug (control), IGF-MTX or MTX at the indicated concentration."}, "[6]": {"system": "MCF7 tumors", "assay": "MCF7 xenograft tumor growth in nu/nu mice", "assay_type": "in vivo, mouse", "settings": "40 nmol/g intravenous, days 0, 4 and 8; 12 days of observation", "method": "(§1) MCF7 cells (human breast adenocarcinoma cell line) were grown in Eagle's minimal essential medium supplemented with 0.1 mg/ml insulin and 10% FCS. The estrogen-dependent MCF7-L cell line was a gift from Deepali Sachdev of the University of Minnesota. MCF7-L cells were grown in modified IMEM medium (Invitrogen, Carlsbad, Calif., USA) supplemented with 0.1 mg/ml insulin. LNCaP cells (metastatic human prostatic adenocarcinoma) were grown in RPMI supplemented with glutamine and 10% FCS (Invitrogen, Carlsbad, Calif., USA). Cells were grown at 37° C. in a 5% CO2 humidified atmosphere. In each case, cells were grown to approximately two-thirds confluence, harvested by trypsinization, washed with rich medium and then washed twice with PBS and resuspended in phosphate buffered saline in BD matrigel matrix (Becton Dickinson, Franklin Lakes, N.J., USA). Cells were injected intradermally in mice on the back. An estrogen pellet (0.5 mg estradiol, 60-day release, Innovative Research of America, Sarasota, Fla., USA) was implanted subcutaneously between the shoulder blades two days before implanting MCF7 and MCF7-L cells. MCF7 and MCF7-L cells were implanted in 8-week-old female nu/nu mice. LNCaP cells were implanted in 8-week-old male nu/nu mice. […] MTX was dissolved in PBS. Untreated vehicle controls received 2 mM HCl, 1% glycerol. Drug was administered intravenously by tail-vein injection in a volume of 12.5 μl per gram mouse weight. All studies were approved by the University of Minnesota Animal Care and Use Committee and conformed to relevant ethical guidelines.\nThree in vivo studies were performed to assess the targeting of MTX with long-R3-IGF-1. In the initial preliminary study, breast cancer MCF7 cells were implanted intradermally in the backs of nude mice."}, "[7]": {"system": "MCF7-L tumors", "assay": "MCF7-L xenograft tumor growth in nu/nu mice", "assay_type": "in vivo, mouse", "settings": "day 22; IGF-MTX 10 nmol of MTX/g or free MTX 40 nmol/g, tail vein, days 0 and 5", "method": "as §1, with “Drug was administered intravenously by tail-vein injection in a volume of 12.5 μl per gram mouse weight. All studies were approved by the University of Minnesota Animal Care and Use Committee and conformed to relevant ethical guidelines.” left out"}, "[8]": {"assay": "IGF-MTX- and MTX-related toxicity in mice (ill effects, body weight)", "settings": "mice implanted with MCF7-L cells, n = 5/group", "method": "as §1"}, "[9]": {"system": "breast cancer cells", "settings": "administered with insulin; cited from earlier work"}, "[10]": {"system": "breast cancer cells", "settings": "cells incubated with insulin; cited from earlier work"}, "[11]": {"settings": "humans, cited from earlier work"}, "[12]": {"system": "LNCAP cells", "assay": "LNCAP proliferation in vitro (Example 5, cell counting kit-8)", "protocol": "LNCAP cells were plated in a 96-well plate at 3,000 cells per well in RPMI medium supplemented with 10% fetal bovine serum (FBS). After incubation overnight, the medium in the wells was replaced with 100 μl per well of RPMI supplemented with 0.1% FBS. […] After incubation for 4 days, cell proliferation was assayed with the cell counting kit-8 (Dojindo Molecular Technologies, Gaithersburg, Md.)."}, "[13]": {"settings": "low dose 15 μmoles/kg methotrexate"}}, "note": "Like-named read-outs stand apart in the source and are kept apart here.", "data": [{"compound": "Cc1c2ccncc2c(C)c2c1[nH]c1ccccc12", "note": "[elipticine]", "values": [{"measurement": "stimulation of uptake", "setting": "[1]", "value": 2, "unit": "fold"}]}, {"compound": "CN(Cc1cnc2nc(N)nc(N)c2n1)c1ccc(C(=O)N[C@@H](CCC(=O)O)C(=O)O)cc1", "note": "[methotrexate]", "values": [{"measurement": "inhibition of FSAII proliferation", "setting": "[2]", "value": "inhibited FSAII proliferation"}, {"measurement": "effect on FSAII tumor growth", "setting": "[3]; high dose 60 μmoles/kg methotrexate", "value": "Neither the high or low dose of methotrexate had any apparent effect"}, {"measurement": "effect on FSAII tumor growth", "setting": "[3]; [13]", "value": "Neither the high or low dose of methotrexate had any apparent effect"}, {"measurement": "effect on LNCAP tumor growth", "setting": "[4]; high dose 40 μmoles/kg methotrexate", "value": "appeared to have no effect"}, {"measurement": "effect on LNCAP tumor growth", "setting": "[4]; [13]", "value": "appeared to have no effect"}, {"measurement": "inhibition of proliferation at highest tested concentration", "setting": "[5]; 2000 nM", "value": "significantly greater inhibition than IGF-MTX"}, {"measurement": "inhibition of proliferation compared to untreated control cells", "setting": "[5]; LNCaP", "value": "inhibited proliferation of LNCaP cells"}, {"measurement": "IC50", "setting": "[5]; free MTX, LNCaP, RPMI + 10% FCS, 48 hours with drug, IGF-MTX as concentration of MTX groups", "value": "~400", "unit": "nM"}, {"measurement": "MCF7 tumor growth", "setting": "[6]", "value": "tumors continued to grow"}, {"measurement": "MCF7-L tumor growth inhibition", "setting": "[7]", "value": "inhibited about equally"}, {"measurement": "Average weight of mice, Day 4", "setting": "[8]", "value": 19.5, "unit": "g"}, {"measurement": "Average weight of mice, Day 20", "setting": "[8]", "value": 20.8, "unit": "g"}, {"measurement": "Average weight of mice, Day 0", "setting": "[8]; measured immediately before treatment", "value": 19.2, "unit": "g"}, {"measurement": "factor of lower methotrexate concentration for the same percent cell killing than methotrexate alone", "setting": "[9]", "value": "10^4"}, {"measurement": "stimulation of uptake", "setting": "[10]", "value": 50, "unit": "%"}, {"measurement": "maximum safe dosage", "setting": "[11]; cumulative per 3 weeks", "value": "about 500 micromoles per meter squared per 3 weeks"}, {"measurement": "minimum effective dosage", "setting": "[11]; lowest dosage usually used", "value": "about 130 micromoles per meter squared per 3 weeks"}, {"measurement": "Cell number (relative units)", "setting": "[12]; Minimal med. (0.1% FBS), MTX conc. 2 nM", "value": ".653 ± .046 relative units"}, {"measurement": "Cell number (relative units)", "setting": "[12]; Minimal med. (0.1% FBS), MTX conc. 8 nM", "value": ".737 ± .043 relative units"}, {"measurement": "Cell number (relative units)", "setting": "[12]; Minimal med. (0.1% FBS), MTX conc. 32 nM", "value": ".994 ± .226 relative units"}, {"measurement": "Cell number (relative units)", "setting": "[12]; Minimal med. (0.1% FBS), MTX conc. 125 nM", "value": ".835 ± .048 relative units"}, {"measurement": "Cell number (relative units)", "setting": "[12]; Minimal med. (0.1% FBS), MTX conc. 500 nM", "value": ".706 ± .051 relative units"}, {"measurement": "Cell number (relative units)", "setting": "[12]; Minimal med. (0.1% FBS), MTX conc. 2000 nM", "value": "0.418 ± .026 relative units"}, {"measurement": "Cell number (relative units)", "setting": "[12]; Rich medium (10% FBS), MTX conc. 2 nM", "value": "0.724 ± .015 relative units"}, {"measurement": "Cell number (relative units)", "setting": "[12]; Rich medium (10% FBS), MTX conc. 8 nM", "value": "0.596 ± .071 relative units"}, {"measurement": "Cell number (relative units)", "setting": "[12]; Rich medium (10% FBS), MTX conc. 32 nM", "value": "1.017 ± .033 relative units"}, {"measurement": "Cell number (relative units)", "setting": "[12]; Rich medium (10% FBS), MTX conc. 125 nM", "value": "0.223 ± .012 relative units"}, {"measurement": "Cell number (relative units)", "setting": "[12]; Rich medium (10% FBS), MTX conc. 500 nM", "value": "0.163 ± .009 relative units"}, {"measurement": "minimal inhibitory concentration", "setting": "[12]; minimal medium containing 0.1% serum", "value": "about 2000 nM"}, {"measurement": "minimal inhibitory concentration", "setting": "[12]; rich medium containing 10% serum", "value": "about 125 nM"}]}]}
